# Assay results published in patent US20140194517A1, “Treatment of Graft-Versus-Host Disease Disorders using RAR Antagonists” (Io Therapeutics, Inc., priority 2013, published 2014).
# Test system: B10.BR recipients (acute GVHD)
# Assay: Acute GVHD after allogeneic BMT: lethally irradiated B10.BR recipients given B6 BM and splenocytes
# Format: in vivo, mice
# Conditions: 15×10^6 splenocytes, ATRA 200 μg/mouse IP daily day 0 to 28
# Protocol: FIG. 3. Heightened RA levels and RAR-α signaling exacerbates GVHD. Survival and weight curves of lethally irradiated B10.BR recipients (n=8/group) injected with 10^7 BM and 15×10^6 splenocytes from B6 mice. Subgroups were treated with vehicle (filled circles) or all trans retinoic acid (ATRA) (open circles) p=0.013.
# FIG. 4. Heightened RA levels and RAR-α signaling exacerbates GVHD. Survival and weight curves of lethally irradiated B10.BR recipients (n=8/group) injected with 10^7 BM and 5×10^6 splenocytes from B6 mice. Subgroups were treated with vehicle (filled circles) or ATRA (open circles) p=0.037.
# To determine whether heightened vitamin A signaling would augment acute GVHD, B10.BR recipients given BM with or without 15×10^6 splenocytes from B6 mice were given ATRA (200 μg/mouse IP) daily from day 0 to 28. […] These findings indicate heightened vitamin A levels and RAR signaling can enhance GVHD lethality.
compound,measurement,setting,value
"CC1=C(/C=C/C(C)=C/C=C/C(C)=C/C(=O)O)C(C)(C)CCC1 [ATRA, all trans retinoic acid]",GVHD lethality,p=0.013 vs vehicle,significant increase
same,median survival time (MST),vehicle 21.5 days,9 days
same,weight loss,vs vehicle,accelerated weight loss
